Marks after values point to notes of the source that are not given here.
Key:
[1] = tested on: K. pneumoniae ATCC 43816 (WT); test: MIC of antibiotics with and without EPI (REMA), WT strain; type: cell-based, Klebsiella pneumoniae; conditions: K. pneumoniae WT
Method: Overnight cultures were diluted to an OD600 = 0.001 in CAMHB followed by addition of efflux pump inhibitors (EPIs) at a final concentration of 100 µM. […] Plates were incubated at 37 °C for up to 20 h. […] MICs were defined as the concentration that prevented 90% of resazurin turnover compared to the non-treated bacteria.

[2] = in vitro; type: cell-based; conditions: mouse, BALB/3T3 cells, read-out: in vitro cytotoxicity CC50
Method: BALB/3T3 cells (CCL-163 from ATCC) were not authenticated. The cell lines were tested negative for mycoplasma contamination (kit mycoalert LONZA). The cytotoxicity of compound BDM91288 (5) was determined on BALB/3T3 cells using live imaging following both Hoechst 33342 and propidium iodide staining. Propidium iodide is a not membrane-permeable DNA stain, allowing to differentiate necroptic, apoptotic and healthy cells based on loss of membrane integrity. […] Final medium volume was 70 µL. 24 h after compounds addition, live imaging was performed using the automated confocal microscope In Cell Analyzer 6000 (GE Healthcare). The cytotoxicity was defined as the percent of cells labelled by propidium iodide in the total cell population (Hoechst labelled cells) using Columbus software (Perkin Elmer). Compounds were tested in triplicate. Carfilzomib (499, 249, […], 61, and 30.6 nM) was used as a positive control in this assay.

[3] = biological target: T1, hERG Human Potassium Ion Channel (Homo sapiens, UniProt Q12809); test: hERG [3H] Dofetilide binding assay; conditions: at 30 µM
T1 construct: Eurofins Cerep France (contract assay)
T1 sequence (Q12809 whole entry): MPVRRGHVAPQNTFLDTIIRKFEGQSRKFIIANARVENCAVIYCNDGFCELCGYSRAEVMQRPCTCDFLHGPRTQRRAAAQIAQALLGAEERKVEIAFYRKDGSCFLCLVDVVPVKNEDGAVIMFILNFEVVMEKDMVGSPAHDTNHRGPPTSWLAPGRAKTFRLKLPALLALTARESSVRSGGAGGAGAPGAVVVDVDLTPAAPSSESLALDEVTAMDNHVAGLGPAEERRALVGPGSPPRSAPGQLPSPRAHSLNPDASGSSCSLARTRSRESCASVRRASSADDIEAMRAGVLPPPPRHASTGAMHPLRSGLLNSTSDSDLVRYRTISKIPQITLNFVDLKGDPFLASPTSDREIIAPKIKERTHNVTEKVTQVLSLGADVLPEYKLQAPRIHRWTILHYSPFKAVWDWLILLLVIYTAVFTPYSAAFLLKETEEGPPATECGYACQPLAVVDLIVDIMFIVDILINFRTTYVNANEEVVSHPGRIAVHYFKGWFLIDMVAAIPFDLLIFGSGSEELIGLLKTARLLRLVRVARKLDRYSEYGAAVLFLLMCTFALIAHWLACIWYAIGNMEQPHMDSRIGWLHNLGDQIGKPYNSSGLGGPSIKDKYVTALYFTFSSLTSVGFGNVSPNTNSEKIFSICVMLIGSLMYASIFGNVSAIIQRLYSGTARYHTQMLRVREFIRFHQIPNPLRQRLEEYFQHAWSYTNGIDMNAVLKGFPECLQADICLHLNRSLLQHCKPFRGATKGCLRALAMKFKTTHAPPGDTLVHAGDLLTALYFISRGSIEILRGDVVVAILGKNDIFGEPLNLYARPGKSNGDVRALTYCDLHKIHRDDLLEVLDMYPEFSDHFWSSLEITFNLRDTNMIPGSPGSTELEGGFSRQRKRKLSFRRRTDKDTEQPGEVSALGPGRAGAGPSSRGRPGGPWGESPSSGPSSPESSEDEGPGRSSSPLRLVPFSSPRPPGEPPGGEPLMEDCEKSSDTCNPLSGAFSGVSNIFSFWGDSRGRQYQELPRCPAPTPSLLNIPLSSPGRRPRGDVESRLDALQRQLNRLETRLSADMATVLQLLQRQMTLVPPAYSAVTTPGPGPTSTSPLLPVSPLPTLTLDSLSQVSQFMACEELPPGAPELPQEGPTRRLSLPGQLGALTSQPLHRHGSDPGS
Method: hERG (human ether-a-go-go-related gene) inhibition was measured at Eurofins Cerep France using hERG Human Potassium Ion Channel [3H] Dofetilide Binding (Antagonist Radioligand) Assay.

[4] = tested on: E. coli BW25113; test: PyrPip boosting of pyridomycin activity in E. coli (resazurin reduction); type: cell-based, Escherichia coli; conditions: read-out: PyrPip antibiotic boosting activity EC90; E. coli BW25113 in the presence of 8 μg/mL pyridomycin, resazurin reduction; mean ± SEM
Text: With the aim of developing a PyrPip for in vivo efficacy studies in mice, it was important to optimise the metabolic stability of these efflux pump inhibitors to guarantee sufficient exposure in mice needed for antibiotic boosting. […] To identify metabolically stabilised PyrPips while maintaining AcrB inhibition, it was therefore decided to explore modifications to the quinoline core as well as the introduction of substituents at position 6 of the quinoline ring.

[5] = Microsomal stability in mouse liver microsomes; type: in vitro ADME; conditions: female
Method: To determine compound microsomal stability, liver microsomes from female mice (CD-1, Corning) were used. All incubations were performed in duplicate in a shaking water bath at 37 °C. The incubation mixtures contained 1 μM compound with 1% MeOH used as a vehicle, mouse liver microsomes (0.3 mg of microsomal protein per mL), 5 mM MgCl2, 1 mM NADP, 5 mM glucose 6-phosphate, 0.4 U/mL glucose 6-phosphate dehydrogenase, and 50 mM potassium phosphate buffer (pH 7.4) in a final volume of 0.5 mL. Propranolol, known as a high hepatic clearance drug in rodents, was used as a quality-control compound. Controls (t0 and tfinal) were performed in the same conditions but without NADP. The reaction was initiated by the addition of the compound at 1 µM final. Aliquots were removed at 5, 10, 20, 30, and 40 min and the reaction was stopped by adding four volumes of ice-cold MeCN or MeOH containing an internal standard. The samples were centrifuged for 10 min at 12,000 rpm at 4 °C and the supernatants were transferred in matrix tubes for LC-MS/MS analysis. Each compound was quantified by converting the corresponding analyte/internal standard peak area ratios to percentage drug remaining, using the initial ratio values in control incubations as 100%.
Intrinsic clearance (CLint) is expressed as μL/min/mg proteins.

[6] = Solubility in PBS pH 7.4; type: physicochemical; conditions: PBS pH 7.4, pH 7.4, aqueous buffer, thermodynamic from solid
Method: 0.5 mg of BDM91288 (5) were dissolved either in 1235 μL of PBS pH 7.4 (triplicate) or in 1235 µL of DMSO (triplicate twice). After gently stirring 24 h at room temperature, the solutions were centrifuged for 5 min at 4000 rpm and filtered over 0.45-μm filters (Millex-LH Millipore), excepted one of the DMSO triplicate. Then, 2 µL of each solution was diluted in 998 µL of MeOH were transferred in matrix tubes for LC-MS/MS analysis. The solubility was determined according to the following formula: Solubility (µM) = [AUC(filtered PBS)/AUC(not filtered DMSO)] × 1000.

[7] = biological target: K. pneumoniae AcrB (Klebsiella pneumoniae, UniProt A0A332Z023); test: Berberine accumulation assay, K. pneumoniae WT; type: cell-based; conditions: read-out: apparent Ki, concentration-dependent stimulation of berberine uptake, 200 µM berberine
K. pneumoniae AcrB, sequence (A0A332Z023 entry or part of it): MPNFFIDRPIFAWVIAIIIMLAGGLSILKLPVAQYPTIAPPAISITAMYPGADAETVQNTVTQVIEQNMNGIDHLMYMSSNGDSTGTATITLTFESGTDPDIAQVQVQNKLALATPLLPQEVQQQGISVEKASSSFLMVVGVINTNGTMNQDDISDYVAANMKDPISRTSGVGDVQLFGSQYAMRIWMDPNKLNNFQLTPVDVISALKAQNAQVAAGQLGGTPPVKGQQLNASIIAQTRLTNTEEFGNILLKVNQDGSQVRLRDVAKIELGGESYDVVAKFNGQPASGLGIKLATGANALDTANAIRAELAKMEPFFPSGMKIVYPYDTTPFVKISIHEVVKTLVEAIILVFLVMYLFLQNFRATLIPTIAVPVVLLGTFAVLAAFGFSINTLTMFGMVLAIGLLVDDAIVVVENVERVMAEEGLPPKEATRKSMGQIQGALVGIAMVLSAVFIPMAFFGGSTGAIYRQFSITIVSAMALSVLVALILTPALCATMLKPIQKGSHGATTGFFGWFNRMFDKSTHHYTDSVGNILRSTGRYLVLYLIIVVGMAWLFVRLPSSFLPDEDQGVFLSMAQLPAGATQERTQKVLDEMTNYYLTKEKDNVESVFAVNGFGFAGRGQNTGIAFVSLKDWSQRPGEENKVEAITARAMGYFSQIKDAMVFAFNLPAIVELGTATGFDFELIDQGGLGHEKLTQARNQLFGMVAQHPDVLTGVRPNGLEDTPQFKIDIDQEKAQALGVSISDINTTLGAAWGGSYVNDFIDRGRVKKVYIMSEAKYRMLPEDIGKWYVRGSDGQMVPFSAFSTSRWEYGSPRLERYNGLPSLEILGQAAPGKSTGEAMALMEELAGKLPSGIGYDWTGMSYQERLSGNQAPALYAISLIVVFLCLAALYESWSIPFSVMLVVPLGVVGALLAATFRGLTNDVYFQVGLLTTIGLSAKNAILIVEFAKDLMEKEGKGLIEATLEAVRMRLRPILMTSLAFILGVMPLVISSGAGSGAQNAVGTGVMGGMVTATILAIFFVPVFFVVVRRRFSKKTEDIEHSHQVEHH
Method: The accumulation of the berberine AcrB substrate in K. pneumoniae WT and AcrB-V448E cells in the presence of different BDM91288 (5) concentrations was determined as described (Plé et al, [2022]) with minor modifications. Briefly, an overnight LB pre-culture of each strain (0.6 mL) was used to inoculate a 30-mL LB culture and incubated for around 2 h (37 °C, 150 rpm) to reach OD600 around 1. Cells were harvested by centrifugation (4000 × g, 10 min at 4 °C), washed three times with 10 mL of ice-cold buffer (50 mM potassium-phosphate pH 7.5 and 1 mM MgSO4) and resuspended into the same buffer containing also 0.2% glucose to an OD600 of 2. The bacterial suspension was then allowed to reach room temperature, after which 200 µL was dispensed to wells of an assay ready 96-black-well plate (Greiner Bio-One) containing 2 µL of 100× concentrated serial dilution of BDM91288 (5). To initiate the uptake experiment, 2 µL of berberine 20 mM (final concentration of 200 µM) was added to each well and transferred to a microplate fluorescence plate reader (Spark, Tecan), where the kinetics of berberine uptake was monitored for 20 min at 30 °C (excitation 365 nm/emission 540 nm). Experiments were performed 4 independent times, and berberine uptake was calculated for all conditions as the rate of fluorescence increase over the first 10 min and expressed as RFU/min (mean ± SD). […]

Row | Structure (SMILES) | Minimum Inhibitory Concentration ([1]; + 100 µM 1') | Minimum Inhibitory Concentration ([1]; + 100 µM 5) | Minimum Inhibitory Concentration ([1]; + 100 µM PAβN) | MIC ([1]; Klebsiella pneumoniae, ATCC43816, No EPI, read-out: Minimum Inhibitory Concentration) [µg/mL] | CC50 at 24 h [2] [µM] | inhibition of the hERG potassium channel [3] [%] | EC90 [4] [µM] | microsomal CLint at 1 μM ([5]; CD-1, pH 7.4, read-out: Microsomal stability CLint (intrinsic clearance)) [µL/min/mg] | half-life at 1 μM ([5]; CD-1, pH 7.4, read-out: Microsomal stability t1/2) [min] | solubility at 24 h [6] [µM] | Ki [7] [µM]
1 | C[C@H]1COc2c(N3CCN(C)CC3)c(F)cc3c(=O)c(C(=O)O)cn1c23 [Levofloxacin] | 0.01^# mg/L | 0.01^# mg/L | 0.02^# mg/L | 0.04 | – | – | – | – | – | – | –
2 | Clc1cc2cc(N3CCNCC3)ccc2nc1N1CCNCC1 [compound 5] | – | – | – | – | 48 | 8 | 3.3 ± 1.7 | 6 | > 40 | ≥ 1000 | ~20

Source: PMC10897476, “Pyridylpiperazine efflux pump inhibitor boosts in vivo antibiotic efficacy against K. pneumoniae” (EMBO Molecular Medicine, 2023)
